Test results taken from US9776992B2, “1-oxo-1,2-dihydroisoquinolin-7-yl-(5-substituted-thiophen-2-yl)-sulfonamide compounds, formulations containing those compounds, and their use as AICARFT inhibitors in the treatment of cancers” (Eli Lilly and Company, priority 2014, dated 2017).

Columns and labels:
[1] = system: AICARFT; experiment: Pharmacodynamic response in beagle dogs (plasma AICAr); assay type: in vivo, beagle dog; conditions: for Mean Plasma AICAr: beagle dogs, orally, time of collection post dose 8; for in vivo inhibition of AICARFT (in words): dogs, summary of Table 20
Method: The in vivo effects of AICARFT inhibition on the circulating concentration of AICAr is determined by liquid chromatography-mass spectrometry (LC-MS). Standard curves containing AICAr at concentrations of 1 ng/mL-2000 ng/mL are prepared in 40 mM ammonium acetate, pH 4. Plasma samples (75 μL) or standards (75 μL) are combined with 300 μL of an internal standard solution containing 13C5-AICAr (20 ng/mL) and formic acid (1%) in ACN. The samples are vortex mixed for 5 minutes and passed through a Phenomenex Phree 96-well phospholipid removal SPE plate. The eluents are collected in a 96-well plate and dried under heated nitrogen at 50° C. Each sample is reconstituted in 50 μL of 40 mM ammonium acetate, pH 4. The plates are sealed and vortexed for 5 minutes prior to analysis. The LC-MS method utilized a Shimadzu Prominence 20A HPLC system connected to an AB Sciex 5500™ or an AB Sciex 6500™ triple quadrupole mass spectrometer running Analyst® software. Extracted samples are separated using two Thermo Hypercarb™ Javelin guard columns (2.1×20 mm, 5 μm) connected in series with an injection volume of 15 μL and a flow rate of 1 mL/minute. Mobile phase A is a 95:5 mixture of 50 mM ammonium formate, pH 4 and ACN. Mobile phase B is a 70:30 mixture of ACN and MeOH spiked with 0.3% formic acid and 2% concentrated ammonium hydroxide solution (v/v). For mouse plasma samples the following gradient is used: 0 minutes, 0% B; 0.25 minutes, 0% B; 2.00 minutes, 25% B; 2.01 minutes, 95% B; 3.50 minutes, 95% B; 3.51 minutes, 0% B; 4.50 minutes, stop. For dog plasma samples the following gradient is used to remove endogenous interferences: 0 minutes, 0% B; 0.25 minutes, 0% B; 5.99 minutes, 20% B; 6.00 minutes, 95% B; 8.00 minutes, 95% B; 8.01 minutes, 0% B; 10.00 minutes, stop. The mass spectrometer is operated in positive ion TurboIonSpray® multiple reaction monitoring mode with a source temperature of 700° C. The precursor and fragment ions for each analyte are: AICAr (259→127) and 13C5-AICAr (264→127). Calibration curves are constructed by plotting analyte concentrations vs. analyte/internal standard peak area ratios and performing a linear fit of the data using a 1/concentration weighting with AB Sciex MultiQuant™ 2.1 software.
Beagle dogs, non-human primates and human are low serum folate species, whereas rodents are high serum folate (C P Leamon et al. (2008) JPET 327:918-925). The pharmacodynamics response in dogs treated with an AICARFT inhibitor will be more representative of the expected pharmacodynamics response in patients treated with an AICARFT inhibitor.
Animals are returned to the colony for re-use after completion of the experiment.

[2] = system: colorectal carcinoma HCT-116; experiment: Low folate in vitro proliferation assay, HCT-116; assay type: cell-based; conditions: Homo sapiens, 168 h; HCT-116, low folate media, 7 days
Source text: (§1) Allow cells to attach overnight. […] Final concentration of compounds will be 1×. […] Dose cells with compounds of interest for 7 days. […] Determine % inhibition for each sample (see Table 18).

[3] = system: panel of 46 cancer cell lines; experiment: Low folate in vitro proliferation assay, cancer cell line panel (Alamar Blue); conditions: media conditions with folate levels similar to human plasma; summary of Table 18
Method: Supplement 500 mL Gibco folate free RPMI media (Gibco #27016-021) with 1 M Hepes (5 mL), 100 mM Na pyruvate (5 mL) and 0.5 g/mL glucose (2.5 mL) to match high folate ATCC RPMI media (ATCC #30-2001). To make complete media, both regular and folate free RPMI medias are supplemented with 10% FBS. The addition of FBS to folate free media adds low levels of folate and is now considered to be low folate media.
Transfer cells growing in high folate RPMI media (ATCC #30-2001)+10% FBS (Hyclone #SH30070.03) to low folate RPMI media and folate starve for 7 days. Wash cells grown in high folate media with PBS, trypsinize, and resuspend in low folate media. Grow cells in low folate media for 7 days making sure to seed tissue culture flasks at a density that will not exceed 80% confluence after 7 days. Wash cells in PBS, trypsinize, and resuspend in low folate media and count cells. Seed 96 well poly D lysine plate (Corning #354640) at 3000 cells/well in 100 μl low folate media. Allow cells to attach overnight. Prepare 10 mM DMSO stocks of compounds to be tested in proliferation assay. Determine concentrations to be tested and dilute compounds to 2× final concentration in low folate media. Calculate % DMSO of this solution and use this value as diluent. […] Read plates on the Envision plate reader (Perkin Elmer), or other fluorescent plate reader, with excitation at 570 nm and emission at 585 nm. […]

[4] = system: colorectal carcinoma HCT-116; experiment: In vitro proliferation assay, HCT-116; assay type: cell-based; conditions: Homo sapiens; HCT-116, standard media conditions
Method: (§2) Cells are grown using the cell banks recommended culture conditions on the date of sample acquisition. Prepare complete medium adding appropriate horse serum (ex. Invitrogen, Cat. No. 16050130) or FBS (ex. Invitrogen, Cat. No. 10099-141 or Hyclone Cat. No. CH30160.03) and additives.
(§3) For attached cell lines, remove and discard culture medium using a vacuum pump. […] Add 3.0 mL of Trypsin-EDTA solution to flask and observe cells under an inverted microscope until cell layer is dispersed. Add 8.0 mL of complete growth medium and aspirate cells by gently pipetting.
(§4) For suspension cell lines, transfer the cell suspension to a centrifuge tube and centrifuge at 800-1000 rpm for 3-5 minutes. Discard the supernatant using a vacuum pump. Add the appropriate volume of complete medium. Suspend the cell pellet by gently pipetting. Count the cell numbers and adjust cells to the appropriate seeding density. […]
(§5) Determine the concentrations to be tested and dilute the compounds to 200×final concentration in low folate media. […] Incubate plates at 37° C. for approximately 2 doubling times as determined for each cell line. […] Paste the clear bottom with white back seal and record luminescence with Flexstation3 (Molecular Devices). The settings should be: Luminescence, integration time 500 ms. […]

[5] = system: panel of cell lines; experiment: In vitro proliferation assay, cell line panel (CellTiter-Glo); assay type: cell-based; conditions: standard media conditions; summary of Table 17
Method: as §2, §3, §4, §5

[6] = system: large cell lung cancer NCI-H460; experiment: Low folate in vitro proliferation assay, NCI-H460; assay type: cell-based; conditions: Homo sapiens, 168 h; NCI-H460, low folate media, 7 days
Source text: as §1

[7] = biological target: AICARFT (Homo sapiens, UniProt P31939); experiment: AICARFT in vivo target inhibition (IVTI) assay, tumor xenografts (ZMP); parameters: from tissue; host or cells: HCT-116 and NCI-H460 tumour xenografts in female athymic nude mice; species or system mouse
Method: In vivo studies are performed using female athymic nude mice (Harlan) with a bodyweight of 23-28 g at first measurement. Upon receipt and throughout the study, the animals are housed 5 animals per cage in appropriately sized solid-bottom cages with contact bedding. The animal room is maintained on a 12-hour light/dark cycle. Animals are acclimated for 14 days prior to implantation of the NCI-H460 or HCT-116 cells on low folate diet (Teklad 130451) ad libitum and autoclaved tap water is provided ad libitum. The HCT-116 and NCI-H460 cell line are obtained from American Type Culture Collection (ATCC) and is cultured following ATCC instructions. Cells used for implantation are harvested during log phase growth and suspended in serum-free media. The suspended cells are then diluted 1:1 with BD Matrigel Matrix (ref 354234). Cells are injected in the right flank with 5.0E+06 cells (0.2 mL cell/Matrigel suspension). Tumors are monitored beginning day 8 post implant. Animals are redistributed into groups with 5-6 animals per group utilizing proprietary randomization software when average tumor volume reaches 200 mm^3. Groups 1-12 are maintained on a low folate diet (Teklad 130451) and folic acid (Sigma F8798 Lot #SLBH0909V) administration at doses listed in the Table 19 began 28 hours prior to dose initiation and 4 hours prior to each dose. Folic acid is formulated weekly in PBS and dosed via oral gavage at 0.2 mL. Groups 13-16 are placed on standard chow (Teklad 2920X) at randomization. The compound is formulated weekly in 20% HPBCD in Phosphate buffer pH 8 with one molar equivalent NaOH added. The formulated compound is administered at the doses and schedules indicated in Table 19 by oral gavage (0.2 mL). The vehicle is also given QD as the control arm of the study. Tumor volume and body weight are measured 2× a week. Tumor volume is determined by caliper measurements (mm) and using the formula for an ellipsoid sphere: tumor volume (mm^3)=length×width^2/2, where length and width refer to the larger and smaller perpendicular dimensions collected at each measurement. The animal behavior and animal health are monitored daily during dosing period.
The in vivo effects of AICARFT inhibition on the concentrations of pathway-related analytes are determined by liquid chromatography-mass spectrometry (LC-MS) analysis of tumor xenografts. Tumor xenograft samples on dry ice are weighed on an analytical balance, transferred to 2 mL Eppendorf Safe-Lock Tube™, and placed on dry ice. An internal standard solution containing 13C5-ZMP (1000 ng/mL), 13C5-AICAr (500 ng/mL), ascorbic acid (0.1%), and formic acid (0.1%) in MeOH/DCM (80:20) is prepared and stored at 20° C. For every mg of tissue in the sample tube, 10 L of internal standard solution is added. Standard curves containing ZMP, dUMP, AICAr at concentrations of 7.6-50,000 ng/mL are prepared separately in the internal standard solution.
One 5 mm steel bead (Qiagen) is added to each sample tube and the tubes are placed on wet ice for 15 minutes. Samples are homogenized on a Qiagen TissueLyser II for 5 minutes at 15 Hz, and then centrifuged on an Eppendorf 5430R microcentrifuge for 10 minutes at 13,000 rpm and 4° C. Aliquots of each supernatant (200 μL) are removed and placed into a deep 96-well plate. Aliquots (200 μL) of each standard curve solution are also placed in a deep 96-well plate. A Beckman Biomek FX liquid handler added DCM (600 μL) and 0.1% ascorbic acid solution (200 μL) to each well. The plate is sealed, vortexed for 5 minutes, and centrifuged for 5 minutes at 4,000 rpm and 4° C. on an Eppendorf 5810R centrifuge. Aliquots (75 μL) of the top layer are transferred to a clean 96-well plate, and an additional 75 μL of 40 mM ammonium acetate, pH 4 is added to each well. The plates are sealed prior to analysis. The LC-MS method utilized a Shimadzu Prominence 20A HPLC system connected to an AB Sciex 5500™ or an AB Sciex 6500™ triple quadrupole mass spectrometer running Analyst® software.

[8] = system: large cell lung cancer NCI-H460; experiment: In vitro proliferation assay, NCI-H460; assay type: cell-based; conditions: Homo sapiens; NCI-H460, standard media conditions
Method: as §2, §3, §4, §5

Chain of AICARFT (Homo sapiens, UniProt P31939) (P31939 whole entry): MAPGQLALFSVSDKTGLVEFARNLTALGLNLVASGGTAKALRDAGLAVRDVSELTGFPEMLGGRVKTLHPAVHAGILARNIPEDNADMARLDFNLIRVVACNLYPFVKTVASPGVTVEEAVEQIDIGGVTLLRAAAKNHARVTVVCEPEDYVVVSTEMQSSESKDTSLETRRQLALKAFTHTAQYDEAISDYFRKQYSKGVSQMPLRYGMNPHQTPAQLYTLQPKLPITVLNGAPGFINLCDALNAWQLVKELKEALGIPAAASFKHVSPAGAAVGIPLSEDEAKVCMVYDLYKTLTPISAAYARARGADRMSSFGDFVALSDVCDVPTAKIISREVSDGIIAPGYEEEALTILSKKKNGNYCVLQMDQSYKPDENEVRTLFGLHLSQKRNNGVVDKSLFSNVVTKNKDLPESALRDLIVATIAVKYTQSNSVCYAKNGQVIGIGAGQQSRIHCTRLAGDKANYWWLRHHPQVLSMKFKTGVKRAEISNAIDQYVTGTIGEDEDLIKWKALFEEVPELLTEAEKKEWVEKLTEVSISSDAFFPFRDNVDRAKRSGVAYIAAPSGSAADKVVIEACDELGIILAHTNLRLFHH

IC50 [2] [nM] | IC50 [6] [nM] | Mean tumor ZMP ([7]; HCT-116 xenograft, Group 6, low folate diet, folic acid 0.75 mg/kg (QD × 15, orally), 10 mg/kg QD × 14, orally, Day 23) [µM] | Mean tumor ZMP ([7]; HCT-116 xenograft, Group 7, low folate diet, folic acid 0.75 mg/kg (QD × 15, orally), 30 mg/kg QD × 14, orally, Day 23) [µM] | Mean tumor ZMP ([7]; HCT-116 xenograft, Group 14, standard chow, no folic acid, 10 mg/kg QD × 14, orally, Day 23) [µM] | Mean tumor ZMP ([7]; HCT-116 xenograft, Group 15, standard chow, no folic acid, 30 mg/kg QD × 14, orally, Day 23) [µM] | Mean tumor ZMP ([7]; NCI-H460 xenograft, Group 14, standard chow, no folic acid, 10 mg/kg QD × 13, orally, Day 20) [µM] | Mean tumor ZMP ([7]; NCI-H460 xenograft, Group 15, standard chow, no folic acid, 30 mg/kg QD × 13, orally, Day 20) [µM] | Compound | Mean Plasma AICAr ([1]; 10 mg/kg QD) [nM] | Mean Plasma AICAr ([1]; 30 mg/kg QD) [nM] | Mean Plasma AICAr ([1]; 100 mg/kg QD) [nM] | Mean Plasma AICAr ([1]; 300 mg/kg QD) [nM] | in vivo inhibition of AICARFT (in words) [1] | inhibition of proliferation of cancer cells (in words) [3] | IC50 [4] [nM] | inhibition of proliferation of cancer cells (in words) [5] | IC50 [8] [nM]
 |  |  |  |  |  |  |  | O=c1[nH]ccc2cc(F)c(NS(=O)(=O)c3ccc(N4C[C@@H](O)[C@@H](F)C4)s3)cc12 (single isomer, unassigned) [Example 33] | 98 | 213 | 726 | 1150 | demonstrate in vivo inhibition of AICARFT |  |  |  | 
3 | 20 | 20 | 35 | 7.0 | 26 | 3.7 | 66 | O=c1[nH]ccc2cc(F)c(NS(=O)(=O)c3ccc(N4CC[C@@H](O)C4)s3)cc12 [Example 1, N-(6-Fluoro-1-oxo-1,2-dihydroisoquinolin-7-yl)-5-[(3R)-3-hydroxypyrrolidin-1-yl]thiophene-2-sulfonamide] | 138 | 254 | 652 | 931 | demonstrate in vivo inhibition of AICARFT | inhibits proliferation of cancer cells | 8100 | inhibit proliferation of cancer cells | 610
 |  |  |  |  |  |  |  | O=c1[nH]ccc2cc(F)c(NS(=O)(=O)c3ccc(N4C[C@@H](O)C(F)(F)C4)s3)cc12 [Example 41, 5-[(4R)-3,3-difluoro-4-hydroxypyrrolidin-1-yl]-N-(6-fluoro-1-oxo-1,2-dihydroisoquinolin-7-yl)thiophene-2-sulfonamide] | 158 | 362 | 1534 | 1373 | demonstrate in vivo inhibition of AICARFT |  | 10800 | inhibit proliferation of cancer cells | 1880
